Key:
[1] = design: species or system human; settings: in vivo
Text: The opening of a new cohort followed a standard 3 + 3 dose-escalation design and was guided by assessment of all grade toxicities and trends in adverse events seen in subsequent dosing cycles. […] Safety and clinical data were reviewed through day 28 prior to the opening of each cohort level. DLT was defined as any possible drug-related, clinically relevant, grade 3 or 4 non-hematologic toxicity (except alopecia or unmedicated nausea/vomiting), grade 3 nausea, vomiting, or diarrhea of any duration lasting > 24 hours despite standard prophylaxis and/or treatment, grade 4 diarrhea and vomiting of any duration, grade 3 febrile neutropenia (defined as ANC […] with a single temperature of > 38.3° C or a sustained temperature of ≥ 38.3° C for more than 1 hour), grade 4 febrile neutropenia of any duration, grade 4 neutropenia lasting > 7 days (defined as a neutrophil count of < 500/mm^3), grade 4 thrombocytopenia or thrombocytopenia with clinically significant bleeding, grade 4 anemia of any duration, and any clinically significant toxicity that precluded administration of the next scheduled dose beyond 14 days, or dose reduction for any reason. The maximum tolerated dose (MTD) was defined as the highest dose tested in which fewer than 33% of patients experienced a DLT. Review of study data led to expansion of dose cohort 3 while dose cohort 4 was evaluated. Dose cohort 4 was also expanded in the absence of DLTs. The recommended phase II dose was defined as a dose equal to or below the MTD and accounted for any cumulative or delayed toxicity beyond the DLT observation period.
Safety evaluations of hematology and chemistry were conducted weekly on days 1, 8, and 15 in cycles 1 and 2 and every 2 weeks thereafter. Physical examination, vital signs collection, performance status assessment, neurological exam, and coagulation level occurred at the start of every cycle. An ECG and chest X-ray were performed at baseline prior to starting treatment. Toxicities were assessed using NCI CTCAE version 4.03.

[2] = cited from earlier work

## CN(C)C/C=C/C(=O)Nc1cc2c(Nc3ccc(F)c(Cl)c3)ncnc2cc1O[C@H]1CCOC1 [Afatinib]
[1]; human
  Acute kidney injury: % of patients with treatment-related AE: 4.2%
  Acute kidney injury: No. of patients with treatment-related AE: 1
  Amnesia: % of patients with treatment-related AE: 4.2%
  Amnesia: No. of patients with treatment-related AE: 1
  Anorexia: % of patients with treatment-related AE: 25%
  Anorexia: No. of patients with treatment-related AE: 6
  Bilateral blepharitis: % of patients with treatment-related AE: 4.2%
  Bilateral blepharitis: No. of patients with treatment-related AE: 1
  Bilateral intermittent leg cramps: % of patients with treatment-related AE: 4.2%
  Bilateral intermittent leg cramps: No. of patients with treatment-related AE: 1
  Blurred vision: % of patients with treatment-related AE: 4.2%
  Blurred vision: No. of patients with treatment-related AE: 1
  Candida Intertrigo: % of patients with treatment-related AE: 4.2%
  Candida Intertrigo: No. of patients with treatment-related AE: 1
  Confusion: % of patients with treatment-related AE: 8.3%
  Confusion: No. of patients with treatment-related AE: 2
  Constipation: % of patients with treatment-related AE: 12.5%
  Constipation: No. of patients with treatment-related AE: 3
  DVT: % of patients with treatment-related AE: 4.2%
  DVT: No. of patients with treatment-related AE: 1
  Diarrhea: % of patients with treatment-related AE: 75%
  Diarrhea: No. of patients with treatment-related AE: 18
  Dysgeusia: % of patients with treatment-related AE: 4.2%
  Dysgeusia: No. of patients with treatment-related AE: 1
  Dyspepsia: % of patients with treatment-related AE: 4.2%
  Dyspepsia: No. of patients with treatment-related AE: 1
  Dyspnea: % of patients with treatment-related AE: 4.2%
  Dyspnea: No. of patients with treatment-related AE: 1
  Edema limbs: % of patients with treatment-related AE: 16.7%
  Edema limbs: No. of patients with treatment-related AE: 4
  Fatigue: % of patients with treatment-related AE: 25%
  Fatigue: No. of patients with treatment-related AE: 6
  Fever: % of patients with treatment-related AE: 8.3%
  Fever: No. of patients with treatment-related AE: 2
  GERD: % of patients with treatment-related AE: 4.2%
  GERD: No. of patients with treatment-related AE: 1
  Gait disturbance: % of patients with treatment-related AE: 4.2%
  Gait disturbance: No. of patients with treatment-related AE: 1
  Gastroenteritis: % of patients with treatment-related AE: 4.2%
  Gastroenteritis: No. of patients with treatment-related AE: 1
  Headache: % of patients with treatment-related AE: 4.2%
  Headache: No. of patients with treatment-related AE: 1
  Hypokalemia: % of patients with treatment-related AE: 4.2%
  Hypokalemia: No. of patients with treatment-related AE: 1
  Ingrown nail: % of patients with treatment-related AE: 4.2%
  Ingrown nail: No. of patients with treatment-related AE: 1
  Insomnia: % of patients with treatment-related AE: 4.2%
  Insomnia: No. of patients with treatment-related AE: 1
  Memory impairment: % of patients with treatment-related AE: 4.2%
  Memory impairment: No. of patients with treatment-related AE: 1
  Metabolic acidosis: % of patients with treatment-related AE: 4.2%
  Metabolic acidosis: No. of patients with treatment-related AE: 1
  Metabolic encephalopathy: % of patients with treatment-related AE: 4.2%
  Metabolic encephalopathy: No. of patients with treatment-related AE: 1
  Nausea: % of patients with treatment-related AE: 37.5%
  Nausea: No. of patients with treatment-related AE: 9
  Palmar-Plantar Erythrodysesthesia: % of patients with treatment-related AE: 4.2%
  Palmar-Plantar Erythrodysesthesia: No. of patients with treatment-related AE: 1
  Paresthesia (lower extremities): % of patients with treatment-related AE: 4.2%
  Paresthesia (lower extremities): No. of patients with treatment-related AE: 1
  Pruritus: % of patients with treatment-related AE: 16.7%
  Pruritus: No. of patients with treatment-related AE: 4
  Rash acneiform: % of patients with treatment-related AE: 37.5%
  Rash acneiform: No. of patients with treatment-related AE: 9
  Rash maculo-papular: % of patients with treatment-related AE: 20.8%
  Rash maculo-papular: No. of patients with treatment-related AE: 6
  Rash: % of patients with treatment-related AE: 25%
  Rash: No. of patients with treatment-related AE: 6
  Skin atrophy: % of patients with treatment-related AE: 4.2%
  Skin atrophy: No. of patients with treatment-related AE: 1
  Skin ulceration: % of patients with treatment-related AE: 4.2%
  Skin ulceration: No. of patients with treatment-related AE: 1
  Thrombocytopenia: % of patients with treatment-related AE: 4.2%
  Thrombocytopenia: No. of patients with treatment-related AE: 1
  Vomiting: % of patients with treatment-related AE: 37.5%
  Vomiting: No. of patients with treatment-related AE: 9
[1]; human, po
  Mucositis oral: % of patients with treatment-related AE: 20.8%
  Mucositis oral: No. of patients with treatment-related AE: 5
  Recommended phase II dose: 280 mg
  Thrush (oral): % of patients with treatment-related AE: 4.2%
  Thrush (oral): No. of patients with treatment-related AE: 1
[1]
  Dose-limiting toxicities: no dose-limiting toxicities
[2]; afatinib 40 mg daily, 11 patients, leptomeningeal metastases from NSCLC, steady-state day 8
  Median concentration of afatinib in CSF: 2.9 nM
[2]; daily afatinib, case of leptomeningeal carcinomatosis
  Afatinib concentration in the CSF: 0.05 nM

Source: article PMC11046985 (Neuro-Oncology Advances, 2024)
